# Results reported in patent US10259810B2, “N-sulfonylated pyrazolo[3,4-b]pyridin-6-carboxamides and method of use” (AbbVie S.à.r.l., priority 2015, dated 2019).
# Where two headings read alike, the source gives them in different places.
# What was measured:
# Assay type in all cases: cell-based
# CFTR ΔF508 = molecular target: T1, CFTR ΔF508 (Homo sapiens, UniProt P13569, DEL508-508); assay: Chronic TECC assay, primary bronchial epithelial cells of CF patients homozygous for CFTR ΔF508 (corrector, co-corrector and potentiator); conditions: for % Activity at 1 μM (AUC**): test compound at 1 μM
# T1 construct: bronchial epithelial cells isolated from CF patients homozygous for the CFTR ΔF508 mutation; McGill University; Asterand; University of North Carolina hAEC-CF; host or cells: primary human bronchial epithelial cells from CF patients homozygous for ΔF508, differentiated at air-liquid interface
# Method in brief: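 Primary bronchial epithelial cells from ΔF508-homozygous CF patients on collagen IV-coated Transwells were chronically treated with test compound plus corrector and potentiator, which were re-added before recording. Ieq was derived from PD and Rt in NaCl-Ringer, pH 7.4, at 37° C, with apical amiloride and bilateral forskolin, recorded every 2 min over 20 min. Ieq increase was normalized to controls, and EC50 was taken from per-well concentrations.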
# ΔF508-CFTR [1] = molecular target: T2, ΔF508-CFTR (Homo sapiens, UniProt P13569, DEL508-508); assay: CFTR cell surface levels using HRP-tagged ΔF508-CFTR expressing CFBE cells, intrinsic corrector capacity; set-up: % Activation: concentration or dose not given beside the values
# T2 construct: host or cells: CFBE41o-, doxycycline-inducible
# Method in brief: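 Read-out: chemiluminescent HRP activity of ECL4-HRP-tagged ΔF508-CFTR at the cell surface, 15 min substrate in dark. Normalized as 100×(sample−DMSO)/(positive control−DMSO).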
# ΔF508-CFTR [2] = molecular target: T2, ΔF508-CFTR; assay: CFTR cell surface levels using HRP-tagged ΔF508-CFTR expressing CFBE cells, in the presence of a co-corrector
# Method in brief: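 Chemiluminescent read-out of surface HRP (15 min, dark) after PBS washes. Activity is normalized as 100×(sample−DMSO)/(3 μM co-corrector alone−DMSO).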
# [3] = chronic TECC, AUC = full area under the curve upon forskolin stimulation
# [4] = HRP-tagged ΔF508-CFTR expressing CFBE41o- cells, compound alone (intrinsic corrector capacity), 20 hours at 33° C.
# [5] = HRP-tagged ΔF508-CFTR expressing CFBE41o- cells, compound alone (intrinsic corrector capacity), 20 hours at 33° C., read-out: EC50
# [6] = HRP-tagged ΔF508-CFTR CFBE cells, in the presence of 3 μM co-corrector
# [7] = HRP-tagged ΔF508-CFTR CFBE cells, in the presence of 3 μM co-corrector, read-out: EC50
# [8] = chronic TECC, AUC = full area under the curve upon forskolin stimulation, read-out: EC50 (nM) (AUC**)
# T1 sequence (P13569 with tags, fused parts or gaps DEL508-508): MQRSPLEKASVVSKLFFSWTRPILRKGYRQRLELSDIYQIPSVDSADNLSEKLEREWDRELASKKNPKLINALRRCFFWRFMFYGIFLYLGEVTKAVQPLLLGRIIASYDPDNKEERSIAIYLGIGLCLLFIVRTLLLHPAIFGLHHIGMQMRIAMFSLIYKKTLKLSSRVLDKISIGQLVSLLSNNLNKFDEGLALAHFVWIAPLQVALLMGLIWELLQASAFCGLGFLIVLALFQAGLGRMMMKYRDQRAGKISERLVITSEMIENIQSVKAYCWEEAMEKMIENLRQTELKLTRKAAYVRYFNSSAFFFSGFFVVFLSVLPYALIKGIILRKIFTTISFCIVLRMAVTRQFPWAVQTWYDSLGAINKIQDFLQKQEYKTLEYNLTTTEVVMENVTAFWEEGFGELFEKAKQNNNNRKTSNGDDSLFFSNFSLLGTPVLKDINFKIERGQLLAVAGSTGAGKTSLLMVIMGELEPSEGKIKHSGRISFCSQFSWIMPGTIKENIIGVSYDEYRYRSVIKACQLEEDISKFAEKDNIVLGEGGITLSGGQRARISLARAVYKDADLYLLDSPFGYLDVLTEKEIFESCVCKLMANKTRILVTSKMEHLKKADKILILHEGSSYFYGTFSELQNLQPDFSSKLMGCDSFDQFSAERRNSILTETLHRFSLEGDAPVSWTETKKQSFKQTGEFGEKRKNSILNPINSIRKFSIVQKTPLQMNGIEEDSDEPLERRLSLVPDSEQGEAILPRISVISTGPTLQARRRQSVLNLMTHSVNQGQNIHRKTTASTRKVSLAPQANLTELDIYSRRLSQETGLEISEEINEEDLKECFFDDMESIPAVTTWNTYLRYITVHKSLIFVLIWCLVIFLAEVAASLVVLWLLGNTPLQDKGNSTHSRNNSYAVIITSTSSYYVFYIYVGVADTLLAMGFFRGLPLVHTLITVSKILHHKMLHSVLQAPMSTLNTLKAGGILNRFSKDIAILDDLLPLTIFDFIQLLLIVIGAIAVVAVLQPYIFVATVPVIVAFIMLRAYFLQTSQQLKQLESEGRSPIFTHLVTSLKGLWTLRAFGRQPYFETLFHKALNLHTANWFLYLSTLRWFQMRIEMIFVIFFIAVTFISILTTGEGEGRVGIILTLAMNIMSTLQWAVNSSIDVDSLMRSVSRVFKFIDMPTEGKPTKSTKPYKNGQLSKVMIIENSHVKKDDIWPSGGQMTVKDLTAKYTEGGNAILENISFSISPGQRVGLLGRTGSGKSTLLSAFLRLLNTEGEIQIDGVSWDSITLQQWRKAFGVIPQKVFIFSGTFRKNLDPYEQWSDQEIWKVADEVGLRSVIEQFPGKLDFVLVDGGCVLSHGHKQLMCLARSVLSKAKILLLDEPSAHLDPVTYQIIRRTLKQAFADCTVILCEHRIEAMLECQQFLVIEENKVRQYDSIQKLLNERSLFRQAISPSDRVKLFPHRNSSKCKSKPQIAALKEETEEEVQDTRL
# T2 sequence (P13569 with tags, fused parts or gaps DEL508-508): as above
SMILES,% Activity at 1 μM (AUC**) (CFTR ΔF508; [3]),% Activation (ΔF508-CFTR [1]; [4]),EC50 (ΔF508-CFTR [1]; [5]),% Activation (ΔF508-CFTR [2]; [6]),EC50 (ΔF508-CFTR [2]; [7]),EC50 (CFTR ΔF508; [8]),EC50 (CFTR ΔF508),EC50 (ΔF508-CFTR [1]),EC50 (ΔF508-CFTR [2])
"COCC1CCN(c2cc(C(=O)NS(=O)(=O)CCN(C)C)nc3c2c(C2CCC2)nn3-c2ccccc2)CC1 [Compound 273, 3-cyclobutyl-N-[2-(dimethylamino)ethanesulfonyl]-4-[4-(methoxymethyl)piperidin-1-yl]-1-phenyl-1H-pyrazolo[3,4-b]pyridine-6-carboxamide]",197.06%,182.4%,562 nM,344.05%,111 nM,–,–,–,–
"CC(=O)N1CCC(F)(COc2cc(C(=O)NS(C)(=O)=O)nc3c2c(C2CCC2)nn3-c2ccccc2)CC1 [Compound 274, 4-[(1-acetyl-4-fluoropiperidin-4-yl)methoxy]-3-cyclobutyl-N-(methanesulfonyl)-1-phenyl-1H-pyrazolo[3,4-b]pyridine-6-carboxamide]",224.99%,159.05%,842 nM,300%,398 nM,> 300 nM,–,–,–
"COCC1CCN(c2cc(C(=O)NS(C)(=O)=O)nc3c2c(C(C)C)nn3-c2ccnc(N3CCOCC3)n2)CC1 [Compound 279, N-(methanesulfonyl)-4-[4-(methoxymethyl)piperidin-1-yl]-1-[2-(morpholin-4-yl)pyrimidin-4-yl]-3-(propan-2-yl)-1H-pyrazolo[3,4-b]pyridine-6-carboxamide]",–,308.4%,534 nM,530.6%,227 nM,109 nM,–,–,–
"COCC1CCN(c2cc(C(=O)NS(=O)(=O)CCCN3CCCC3)nc3c2c(C(C)C)nn3-c2ccc(F)cc2)CC1 [Compound 291, 1-(4-fluorophenyl)-4-[4-(methoxymethyl)piperidin-1-yl]-3-(propan-2-yl)-N-[3-(pyrrolidin-1-yl)propane-1-sulfonyl]-1H-pyrazolo[3,4-b]pyridine-6-carboxamide]",255.92%,219.5%,3330 nM,420.07%,591 nM,–,–,–,–
"COC(C)(C)C1CCN(c2cc(C(=O)NS(C)(=O)=O)nc3c2c(C2CCC2)nn3-c2ccccc2)CC1 [Compound 294, 3-cyclobutyl-N-(methanesulfonyl)-4-[4-(2-methoxypropan-2-yl)piperidin-1-yl]-1-phenyl-1H-pyrazolo[3,4-b]pyridine-6-carboxamide]",–,319.6%,62.2 nM,548.45%,22.1 nM,21 nM,–,–,–
"COC(=O)N1CCC(COc2cc(C(=O)NS(C)(=O)=O)nc3c2c(C2CCC2)nn3-c2ccccc2)CC1 [Compound 297, methyl 4-[({3-cyclobutyl-6-[(methanesulfonyl)carbamoyl]-1-phenyl-1H-pyrazolo[3,4-b]pyridin-4-yl}oxy)methyl]piperidine-1-carboxylate]",470.97%,193.9%,99.2 nM,423.43%,77.2 nM,≤ 30 nM,–,–,–
"CC(C)c1nn(-c2ccc(F)cc2)c2nc(C(=O)NS(C)(=O)=O)cc(N3CCC(C(C)(C)O)CC3)c12 [Compound 304, 1-(4-fluorophenyl)-4-[4-(2-hydroxypropan-2-yl)piperidin-1-yl]-N-(methanesulfonyl)-3-(propan-2-yl)-1H-pyrazolo[3,4-b]pyridine-6-carboxamide]",194.54%,308.2%,203 nM,507%,56.1 nM,–,–,–,–
"COCC1CCN(c2cc(C(=O)NS(C)(=O)=O)nc3c2c(C2CCC2)nn3-c2ccc(F)cc2)CC1 [Compound 316, 3-cyclobutyl-1-(4-fluorophenyl)-N-(methanesulfonyl)-4-[4-(methoxymethyl)piperidin-1-yl]-1H-pyrazolo[3,4-b]pyridine-6-carboxamide]",452.88%,380.5%,183 nM,555.55%,24.4 nM,45 nM,–,–,–
"CC(C)(O)C1CCN(c2cc(C(=O)NS(C)(=O)=O)nc3c2c(C2CCC2)nn3-c2ccccc2)CC1 [Compound 317, 3-cyclobutyl-4-[4-(2-hydroxypropan-2-yl)piperidin-1-yl]-N-(methanesulfonyl)-1-phenyl-1H-pyrazolo[3,4-b]pyridine-6-carboxamide]",311.08%,269.6%,93.5 nM,450.35%,48.8 nM,24 nM,–,–,–
"CS(=O)(=O)NC(=O)c1cc(OCC2CCOCC2)c2c(C3CCC3)nn(-c3ccc(F)cc3)c2n1 [Compound 318, 3-cyclobutyl-1-(4-fluorophenyl)-N-(methanesulfonyl)-4-[(oxan-4-yl)methoxy]-1H-pyrazolo[3,4-b]pyridine-6-carboxamide]",439.94%,183.45%,411 nM,359.5%,184 nM,–,–,–,–
"CC(C)c1nn(-c2ccc(F)cc2)c2nc(C(=O)NS(C)(=O)=O)cc(N3CCC(C4CCN(C)CC4)CC3)c12 [Compound 320, 1-(4-fluorophenyl)-N-(methanesulfonyl)-4-(1'-methyl[4,4'-bipiperidin]-1-yl)-3-(propan-2-yl)-1H-pyrazolo[3,4-b]pyridine-6-carboxamide]",215.3%,376.35%,309 nM,590.6%,82.7 nM,–,–,–,–
"COC(=O)N1CCC(COc2cc(C(=O)NS(C)(=O)=O)nc3c2c(C(C)C)nn3-c2ccc(F)cc2)CC1 [Compound 322, methyl 4-({[1-(4-fluorophenyl)-6-[(methanesulfonyl)carbamoyl]-3-(propan-2-yl)-1H-pyrazolo[3,4-b]pyridin-4-yl]oxy}methyl)piperidine-1-carboxylate]",440.86%,158.25%,128 nM,342.75%,61.4 nM,–,–,–,–
"CN1CCCCC1CCOc1cc(C(=O)NS(C)(=O)=O)nc2c1c(C1CCC1)nn2-c1ccccc1 (stereo not drawn) [Compound 323, 3-cyclobutyl-N-(methanesulfonyl)-4-[2-(1-methylpiperidin-2-yl)ethoxy]-1-phenyl-1H-pyrazolo[3,4-b]pyridine-6-carboxamide]",217.91%,144.6%,1370 nM,292.85%,372 nM,–,–,–,–
"CC(C)N(CCOc1cc(C(=O)NS(C)(=O)=O)nc2c1c(C1CCC1)nn2-c1ccccc1)C1COC1 [Compound 325, 3-cyclobutyl-N-(methanesulfonyl)-4-{2-[(oxetan-3-yl)(propan-2-yl)amino]ethoxy}-1-phenyl-1H-pyrazolo[3,4-b]pyridine-6-carboxamide]",317.57%,151.4%,335 nM,309.8%,153 nM,–,–,–,–
"CS(=O)(=O)NC(=O)c1cc(N2CCC(CCN3CCOCC3)CC2)c2c(C3CCC3)nn(-c3ccccc3)c2n1 [Compound 331, 3-cyclobutyl-N-(methanesulfonyl)-4-{4-[2-(morpholin-4-yl)ethyl]piperidin-1-yl}-1-phenyl-1H-pyrazolo[3,4-b]pyridine-6-carboxamide]",–,347.15%,–,546.05%,–,–,10 nM,136 nM,38.2 nM
"CCOC(=O)N1CCN(c2cc(C(=O)NS(C)(=O)=O)nc3c2c(C(C)C)nn3-c2ccc(F)cc2)CC1 [Compound 337, ethyl 4-[1-(4-fluorophenyl)-6-[(methanesulfonyl)carbamoyl]-3-(propan-2-yl)-1H-pyrazolo[3,4-b]pyridin-4-yl]piperazine-1-carboxylate]",299.50%,404.9%,134 nM,532.3%,30.5 nM,–,–,–,–
